Measurements as given in publication PMC8686763, “Pre-Steady-State Kinetics of the SARS-CoV-2 Main Protease as a Powerful Tool for Antiviral Drug Discovery” (Frontiers in Pharmacology, 2021).
Read-outs that look alike come from different tables or passages of the source.

Experiments:
SARS-CoV-2 M^pro (WT) = SARS-CoV-2 M^pro (WT) (Severe acute respiratory syndrome coronavirus 2, UniProt P0DTD1); test: biochemical; format: binding; settings: for ΔTm at 50 µM: read-out: ΔTm
WT M^pro = WT M^pro (Severe acute respiratory syndrome coronavirus 2, UniProt P0DTD1); format: binding
[1] = 5 μM M^pro, 50 μM inhibitor, vs DMSO control

Compound | Tm (SARS-CoV-2 M^pro (WT)) [°C] | change of protein Tm upon binding (in words) (SARS-CoV-2 M^pro (WT)) | ΔTm at 50 µM (SARS-CoV-2 M^pro (WT); [1]) [°C] | K 2 (= k 2/k −2) (WT M^pro) | k 2 (WT M^pro) [s⁻¹] | k -2 (WT M^pro) [s⁻¹] | k chem (WT M^pro) [s⁻¹] | k 1 (WT M^pro; 25 °C) | k -1 (WT M^pro; 25 °C) [s⁻¹] | ΔTm at 50 µM (SARS-CoV-2 M^pro (WT)) [°C] | Tm (SARS-CoV-2 M^pro (WT); 5 μM M^pro, 50 μM inhibitor, DMSO control 56.25) [°C]
CC(C)(C)NC(=O)N[C@H](C(=O)N1C[C@H]2[C@@H]([C@H]1C(=O)NC(CC1CCC1)C(=O)C(N)=O)C2(C)C)C(C)(C)C (stereo partly drawn) [Boceprevir] | 62.00 | caused changes of protein Tm | 5.75 | – | – | – | – | – | – | – | –
COc1cccc2[nH]c(C(=O)N[C@@H](CC(C)C)C(=O)N[C@@H](C[C@@H]3CCNC3=O)C(=O)CO)cc12 [PF-00835231] | 70.25 | caused changes of protein Tm | – | 0.37 ± 0.07 | 0.90 ± 0.18 | 2.4 ± 0.1 | 0.17 ± 0.07 | (0.35 ± 0.09)×10^6 M^−1×s^−1 | 12.4 ± 0.6 | ~14 | –
CCC[C@H](NC(=O)[C@@H]1[C@H]2CCC[C@H]2CN1C(=O)[C@@H](NC(=O)[C@@H](NC(=O)c1cnccn1)C1CCCCC1)C(C)(C)C)C(=O)C(=O)NC1CC1 [Telaprevir] | – | did not result in Tm changes | 0 | – | – | – | – | – | – | – | 56.25
